Results: publication PMC4882280 (Journal of clinical pharmacology, 2015)
Like-named read-outs stand apart in the source and are kept apart here.

Legend:
[1] = postmenopausal volunteers, single oral 25 mg dose; cited from earlier work
UGT2B17 = settings: human liver microsomes UGT2B17(*2/*2) versus UGT2B17(*1/*1), P=0.023; cited from earlier work
[2] = single oral 25 mg exemestane; for concentration at 24 h: female, human, urine, po, 25 mg, C24 hr (SD), 24-hr urine concentration
[3] = for Plasma concentrations at 24 and 72 hours after exemestane administration: lower limit of quantitation 0.2 (exemestane) and 0.1 ng/ml (17-hydroexemestane); for AUC(0-t): AUC0-8, plasma; for AUC(0-inf): AUC0-∞ (SD); for Cmax: Cmax (SD); for Tmax: Tmax (SD)
[4] = with beta-glucuronidase, UGT2B17 *1/*1 (n = 8)
[5] = with beta-glucuronidase, UGT2B17 *2/*2 (n = 6)
[6] = without beta-glucuronidase, UGT2B17 *1/*1 (n = 8)
[7] = without beta-glucuronidase, UGT2B17 *2/*2 (n = 6)
[8] = plasma, range over subjects, single oral 25 mg exemestane
[9] = female, human, plasma, po, 25 mg, with beta-glucuronidase (total), UGT2B17 *1/*1 (n = 8), single oral 25 mg exemestane
[10] = female, human, plasma, po, 25 mg, with beta-glucuronidase (total), UGT2B17 *2/*2 (n = 6), single oral 25 mg exemestane
[11] = female, human, plasma, po, 25 mg, without beta-glucuronidase (free), UGT2B17 *1/*1 (n = 8), single oral 25 mg exemestane
[12] = female, human, plasma, po, 25 mg, without beta-glucuronidase (free), UGT2B17 *2/*2 (n = 6), single oral 25 mg exemestane

**Q.** Which “maximal plasma concentrations (Cmax), range in previous studies” value [1] does the source give for `C=C1C[C@H]2[C@@H]3CC[C@H](O)[C@@]3(C)CC[C@@H]2[C@@]2(C)C=CC(=O)C=C12` [17-hydroexemestane] here?
**A.** Its value is 0.22 to 2.44 ng/mL.

**Q.** And the “plasma concentrations over time (AUC), range in previous studies” value [1]?
**A.** The value was 2.46 to 20.89 ng·h/mL.

**Q.** And the “lower intrinsic clearance (Vmax/Km)” value (UGT2B17)?
**A.** Its value is 36 fold.

**Q.** And the “C24 hr (SD), 24-hr urine concentration” value [2, 4]?
**A.** The value was 2.3 (1.2) ng/ml.

**Q.** And the “C24 hr (SD), 24-hr urine concentration” value ([2]; with beta-glucuronidase, UGT2B17 *1/*1 (n = 8), listed as 17-HEXE)?
**A.** Its value is 2.3 ± 1.2 ng/mL.

**Q.** And the “C24 hr (SD), 24-hr urine concentration” value [2, 5]?
**A.** The value was 0.5 (0.3) ng/ml.

**Q.** And the “C24 hr (SD), 24-hr urine concentration” value ([2]; with beta-glucuronidase, UGT2B17 *2/*2 (n = 6), listed as 17-HEXE)?
**A.** The value was 0.5 ± 0.3 ng/mL.

**Q.** And the “C24 hr (SD), 24-hr urine concentration” value [2, 6]?
**A.** The value was 0.4 (0.2) ng/ml.

**Q.** What about the “C24 hr (SD), 24-hr urine concentration” value [2, 7] of the same compound?
**A.** The value was 0.4 (0.3) ng/ml.

**Q.** What about the “difference in the AUC of conjugated 17-hydroexemestane between high and poor expressers” value ([3]; UGT2B17 *1/*1 vs *2/*2, plasma) of the same compound?
**A.** Its value is roughly 8 fold.

**Q.** What about the “AUC, range in our pharmacokinetic study” value [3, 8] of the same compound?
**A.** The value was 0.7 to 26.9 ng·h/mL.

**Q.** And the “Cmax, range in our pharmacokinetic study” value [3, 8]?
**A.** Its value is 0.1 to 2.7 ng/mL.

**Q.** And the AUC0-8 ([3]; plasma, with beta-glucuronidase (+BG), UGT2B17*1/*1 carriers, single oral 25 mg exemestane)?
**A.** The AUC0-8 was 7.3 ± 2.6 ng·h/mL.

**Q.** What about the “Plasma concentrations at 24 and 72 hours after exemestane administration” value ([3]; single oral 25 mg exemestane) of the same compound?
**A.** Its value is “below the lowest limit of quantification”.

**Q.** Which “maximal plasma concentrations (Cmax), range in previous studies” value [1] does the source give for `C=C1C[C@@H]2[C@H](CC[C@]3(C)C(=O)CC[C@@H]23)[C@@]2(C)C=CC(=O)C=C12` [Exemestane] here?
**A.** Its value is 3.0 to 16.1 ng/mL.

**Q.** And the “plasma concentrations over time (AUC), range in previous studies” value [1]?
**A.** The value was 25.6 to 98.1 ng·h/mL.

**Q.** And the concentration at 24 h [2, 4]?
**A.** Its concentration at 24 h is 1.7 ± 1 ng/mL.

**Q.** And the concentration at 24 h [2, 5]?
**A.** Its concentration at 24 h is 2.1 ± 1.6 ng/mL.

**Q.** What about the concentration at 24 h [2, 6] of the same compound?
**A.** Its concentration at 24 h is 1.9 ng/mL.

**Q.** And the concentration at 24 h [2, 7]?
**A.** Its concentration at 24 h is 2.5 ng/mL.

**Q.** What about the “C24 hr (SD), 24-hr urine concentration” value [2, 4] of the same compound?
**A.** Its value is 1.7 (1.0) ng/ml.

**Q.** And the “C24 hr (SD), 24-hr urine concentration” value [2, 5]?
**A.** The value was 2.1 (1.6) ng/ml.

**Q.** What about the AUC ([3]; female, human, plasma, po, 25 mg) of the same compound?
**A.** The AUC was 9.2 to 40.6 ng·h/mL.

**Q.** What about the AUC(0-t) ([3]; female, human, plasma, po, 25 mg, with beta-glucuronidase (+BG), UGT2B17*1/*1 carriers, single oral 25 mg exemestane) of the same compound?
**A.** The AUC(0-t) was 16.2 ± 3.5 ng·h/mL.

**Q.** And the AUC(0-t) ([3]; female, human, plasma, po, 25 mg, with beta-glucuronidase (+BG), UGT2B17*2/*2 carriers, single oral 25 mg exemestane)?
**A.** The AUC(0-t) was 15.5 ± 4.2 ng·h/mL.

**Q.** What about the AUC(0-inf) [3, 9] of the same compound?
**A.** Its AUC(0-inf) is 19.8 ng·h/mL.

**Q.** And the AUC(0-inf) [3, 10]?
**A.** Its AUC(0-inf) is 19 ng·h/mL.

**Q.** What about the AUC(0-inf) [3, 11] of the same compound?
**A.** Its AUC(0-inf) is 22.7 ng·h/mL.

**Q.** And the AUC(0-inf) [3, 12]?
**A.** Its AUC(0-inf) is 19.7 ng·h/mL.

**Q.** And the Cmax [3, 9]?
**A.** The Cmax was 4.4 ng/mL.

**Q.** What about the Cmax [3, 10] of the same compound?
**A.** The Cmax was 5.2 ng/mL.

**Q.** What about the Cmax [3, 11] of the same compound?
**A.** Its Cmax is 5.6 ng/mL.

**Q.** And the Cmax [3, 12]?
**A.** Its Cmax is 5.3 ng/mL.

**Q.** What about the Tmax [3, 9] of the same compound?
**A.** The Tmax was 3.1 h.

**Q.** What about the Tmax [3, 10] of the same compound?
**A.** Its Tmax is 1.9 h.

**Q.** And the Tmax [3, 11]?
**A.** The Tmax was 3.1 h.

**Q.** What about the Tmax [3, 12] of the same compound?
**A.** The Tmax was 1.7 h.

**Q.** And the “Plasma concentrations at 24 and 72 hours after exemestane administration” value ([3]; single oral 25 mg exemestane)?
**A.** Its value is “below the lowest limit of quantification”.
